For 10 compounds, TGI and GI50 results are on record in PubChem BioAssay (NCI).

Among the test systems are RPMI-8226 leukemia; OVCAR-5 ovarian; HCC-2998 colon; HCT-116 colon; DU-145 prostate; TK-10 renal; IGROV1 ovarian; KM12 colon; SK-MEL-2 melanoma; U251 CNS; MALME-3M melanoma; NCI-H23 lung.
Holding throughout (assay): NCI anticancer screen, dose series, 48 h

Structures are written as SMILES.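 How tested: cells in 96-well plates exposed to compound for 48 hours at five concentrations. Abbreviation: GI50, concentration required for 50% inhibition of growth. At the TGI there is no net growth.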 Where only a bound is given, the exact number is not on record here.

For the compound `NC(N)=NS(=O)(=O)c1ccc(N/N=C2/CCOC2=O)cc1`, the TGI in the experiment with RPMI-8226 leukemia, in the experiment on OVCAR-5 ovarian, with HCC-2998 colon, with HCT-116 colon, with DU-145 prostate and in the experiment with TK-10 renal was above 100 µM in each case. For the same compound, the TGI with IGROV1 ovarian, in the experiment with KM12 colon, in the experiment with SK-MEL-2 melanoma, in the experiment with U251 CNS, in the experiment on MALME-3M melanoma and in the experiment with NCI-H23 lung was above 100 µM each time.
As to `CC1(c2sccc2Cl)CC(c2sccc2Cl)=C(C#N)C(=C(C#N)C#N)N1` (stereo unspecified), the TGI is 88 µM in the experiment on RPMI-8226 leukemia; 41.7 µM in the experiment with OVCAR-5 ovarian; 29.4 µM in the experiment on HCC-2998 colon; 32.2 µM in the experiment on HCT-116 colon; 31.2 µM in the experiment on DU-145 prostate; 31.6 µM with TK-10 renal. For the same compound, the TGI is 42.4 µM with IGROV1 ovarian; 46 µM in the experiment on KM12 colon; 39.3 µM with SK-MEL-2 melanoma; 33.8 µM with U251 CNS; 32.8 µM in the experiment with MALME-3M melanoma; 35.9 µM in the experiment with NCI-H23 lung.
With `CC1(C)[C@@H]2C[C@H]1[C@@H](Cc1cccc(C[C@H]3c4cc(-c5ccccn5)ncc4[C@H]4C[C@@H]3C4(C)C)c1)c1cc(-c3ccccn3)ncc12`, the TGI is above 26.4 µM in the experiment with RPMI-8226 leukemia; above 100 µM in the experiment on OVCAR-5 ovarian; above 100 µM in the experiment with HCC-2998 colon; above 47.6 µM with HCT-116 colon; above 24.7 µM in the experiment with DU-145 prostate; above 100 µM with TK-10 renal. The TGI in the experiment on IGROV1 ovarian was above 53.3 µM; in the experiment with KM12 colon, above 100 µM; with SK-MEL-2 melanoma, above 100 µM; with U251 CNS, above 100 µM; with MALME-3M melanoma, 8.14 µM; with NCI-H23 lung it was above 77.4 µM. The GI50 with MALME-3M melanoma is 1.78 µM.
`CCOC(=O)NN(C(=O)OCC)C(C(=O)C1=CCCCC1)N(NC(=O)OCC)C(=O)OCC`: the TGI in the experiment with RPMI-8226 leukemia, with OVCAR-5 ovarian, in the experiment on HCC-2998 colon, in the experiment with HCT-116 colon, with DU-145 prostate and in the experiment with TK-10 renal was above 100 µM each time. In addition, the TGI in the experiment with IGROV1 ovarian, in the experiment on KM12 colon, in the experiment on SK-MEL-2 melanoma, in the experiment on U251 CNS, with MALME-3M melanoma and in the experiment on NCI-H23 lung was above 100 µM in each case.
For the compound `CCOC(=O)/C=C(\C(=O)OCC)n1ccc(=O)n(Cc2cnnn2CCCCOC(C)=O)c1=O`, the TGI in the experiment on RPMI-8226 leukemia is above 22.5 µM; in the experiment with OVCAR-5 ovarian, 29.4 µM; in the experiment on HCC-2998 colon, 35.5 µM; in the experiment with HCT-116 colon, above 45.3 µM; in the experiment on DU-145 prostate, 36.1 µM; with TK-10 renal it was 8.96 µM. Further, the TGI in the experiment on IGROV1 ovarian was 28.4 µM; in the experiment with KM12 colon it was 30.5 µM; with SK-MEL-2 melanoma, 36.3 µM; in the experiment on U251 CNS, above 59.3 µM; in the experiment on MALME-3M melanoma, 3.84 µM; in the experiment with NCI-H23 lung, 18.5 µM.
Consider `S=C(N/N=C(\c1ccccc1)c1ccccn1)NC1CCCCC1`, for which the TGI in the experiment with RPMI-8226 leukemia, in the experiment with OVCAR-5 ovarian, in the experiment on HCC-2998 colon, with HCT-116 colon, with DU-145 prostate and in the experiment with TK-10 renal was above 100 µM throughout. For the same compound, the TGI with IGROV1 ovarian, with KM12 colon, in the experiment on SK-MEL-2 melanoma, with U251 CNS, in the experiment with MALME-3M melanoma and in the experiment on NCI-H23 lung was above 100 µM throughout.
On to `CSc1nc(C)cc(Nc2ccc(O)c(CN3CCOCC3)c2)n1`, for which the TGI with RPMI-8226 leukemia, with OVCAR-5 ovarian, in the experiment with HCC-2998 colon, in the experiment with HCT-116 colon, with DU-145 prostate and in the experiment on TK-10 renal was above 100 µM in each case. Also, the TGI in the experiment with IGROV1 ovarian, with KM12 colon, in the experiment on SK-MEL-2 melanoma, with U251 CNS, with MALME-3M melanoma and in the experiment on NCI-H23 lung was above 100 µM each time.
Regarding `COc1ccc(/C=C2/CSCC3=C2NC(=S)NC3c2ccc(OC)c(OC)c2OC)c(OC)c1OC` (stereo unspecified), the TGI with RPMI-8226 leukemia was above 100 µM; with OVCAR-5 ovarian, 57.5 µM; with HCC-2998 colon, 77.9 µM; in the experiment on HCT-116 colon, 60 µM; in the experiment on DU-145 prostate it was above 100 µM; in the experiment with TK-10 renal, 75.5 µM. Moreover, the TGI in the experiment with IGROV1 ovarian is 44.7 µM; with KM12 colon it was 34.1 µM; with SK-MEL-2 melanoma it was 63.6 µM; in the experiment with U251 CNS it was above 100 µM; in the experiment with MALME-3M melanoma, 78.6 µM; in the experiment on NCI-H23 lung, 43 µM.
In the case of `O=C(Cc1ccccc1F)NC1=C(Cl)C(=O)c2ccccc2C1=O`, the TGI in the experiment with RPMI-8226 leukemia came out at 19.1 µM; with OVCAR-5 ovarian it was 21.2 µM; in the experiment with HCC-2998 colon, 15.2 µM; in the experiment on HCT-116 colon, 5.12 µM; in the experiment on DU-145 prostate it was 21.8 µM; in the experiment with TK-10 renal, 5.29 µM. In addition, the TGI in the experiment with IGROV1 ovarian was found to be 9.25 µM; with KM12 colon it was 4.11 µM; with SK-MEL-2 melanoma it was 2.98 µM; in the experiment on U251 CNS, 4.67 µM; in the experiment with MALME-3M melanoma it was 5 µM; in the experiment with NCI-H23 lung it was 3.87 µM.
Regarding `CC(Oc1ccccc1Cl)C(=O)NN1C(=O)CC(=O)N(c2ccccc2)C1=S` (stereo unspecified), the TGI in the experiment with RPMI-8226 leukemia, with OVCAR-5 ovarian, in the experiment with HCC-2998 colon, with HCT-116 colon, in the experiment on DU-145 prostate and in the experiment with TK-10 renal was above 100 µM each time. Besides, the TGI in the experiment with IGROV1 ovarian, in the experiment on KM12 colon, in the experiment on SK-MEL-2 melanoma, in the experiment with U251 CNS, with MALME-3M melanoma and in the experiment with NCI-H23 lung was above 100 µM throughout.
